From paper PMC5354938, “Spleen cells from young but not old immunized mice eradicate large established cancers” (Clinical cancer research : an official journal of the …, 2012)
Read-outs that look alike come from different tables or passages of the source. Ends that are not written are not given here.

Assays:
[1] = target: H2-D^b (Mus musculus, UniProt P01899); conditions: MHC D^b; geometric mean of 5 or more experiments; Published in ref [19]; read-out: Affinity of peptide for MHC (IC50); cited from earlier work
Sequence of H2-D^b (P01899 whole entry, looked up): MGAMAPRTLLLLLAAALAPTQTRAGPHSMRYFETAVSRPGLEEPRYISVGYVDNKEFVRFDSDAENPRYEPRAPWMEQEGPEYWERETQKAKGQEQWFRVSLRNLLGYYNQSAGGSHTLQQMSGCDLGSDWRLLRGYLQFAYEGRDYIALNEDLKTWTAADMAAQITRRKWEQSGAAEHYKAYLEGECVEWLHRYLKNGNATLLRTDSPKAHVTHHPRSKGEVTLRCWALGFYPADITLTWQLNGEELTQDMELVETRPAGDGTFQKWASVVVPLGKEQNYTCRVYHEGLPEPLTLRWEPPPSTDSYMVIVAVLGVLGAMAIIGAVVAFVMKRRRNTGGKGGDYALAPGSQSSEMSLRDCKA

[2] = target: T1, H2-K^b (Mus musculus, UniProt P01901); test: MHC peptide binding assay, purified H2-K^b
T1 construct: made in house
T1 sequence (P01901 22-369): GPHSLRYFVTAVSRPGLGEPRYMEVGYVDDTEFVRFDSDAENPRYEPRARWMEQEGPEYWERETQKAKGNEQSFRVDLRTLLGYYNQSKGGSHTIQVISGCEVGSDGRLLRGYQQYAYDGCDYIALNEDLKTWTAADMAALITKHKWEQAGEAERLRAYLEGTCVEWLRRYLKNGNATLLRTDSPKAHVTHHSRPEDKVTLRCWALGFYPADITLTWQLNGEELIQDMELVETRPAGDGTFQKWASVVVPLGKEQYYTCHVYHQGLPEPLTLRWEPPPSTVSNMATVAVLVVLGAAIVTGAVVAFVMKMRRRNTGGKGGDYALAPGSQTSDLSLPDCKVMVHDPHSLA
T1 sequence (P01887 21-119 partner): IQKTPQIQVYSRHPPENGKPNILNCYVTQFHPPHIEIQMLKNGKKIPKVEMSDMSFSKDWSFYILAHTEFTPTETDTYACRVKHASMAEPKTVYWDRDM
Experimental: MHC purification, and quantitative assays to measure the binding affinity of peptides to purified H2-K^b, H2-D^b, and HLA-A*0201 molecules were performed as previously described ([49], [50]).

[3] = target: T1, H2-K^b; conditions: MHC K^b; geometric mean of 5 or more experiments; Published in ref [19]; read-out: Affinity of peptide for MHC (IC50); cited from earlier work
[4] = Affinity of peptide for MHC (IC50), MHC K^b, purified H2-K^b, geometric mean of 5 or more experiments

## IGMFNLTFI [A23R (297-305)]
[1]
  IC50: 0.34 nM

## SNFVFAGI [mp68 (547-554, 5F)]
[2]; [4]
  IC50: 0.48 nM
[2]; binding to MHC Class I molecules with very high affinity (bound), discussion statement, very high affinity
  IC50: < 1 nM

## SNFVSAGI [p68 (547-554)]
[2]; [4]
  IC50: 22 nM

## YTLIYRQL [A6L (265-272)]
[3]
  IC50: 6 nM
